Numbered stars: 1 amine (or outer) side, 2 acyl side, 3 side chain; on linkers, the order of the positions; unused ones are H or OH. Bridge positions count the residues as written; N and C are the ends. Side chains are listed from the residue outwards. Peptide text beside a SMILES is read from it. * marks the point of attachment. C20 diacid = O=C(O)CCCCCCCCCCCCCCCCCCC(=O)*; γGlu = O=C(O)[C@H](CCC(=O)[*:2])N[*:1]
What was measured:
[1] = molecular target: T1, human amylin receptor (amylin 3(a) receptor: human calcitonin receptor + RAMP-3) (Homo sapiens, UniProt O60896+P30988); assay: Assay (II)a functional assay, human amylin receptor (CRE luciferase, BHK cells); assay type: cell-based
T1 construct: expressed in transfected cells
T1 sequence (P30988 25-474): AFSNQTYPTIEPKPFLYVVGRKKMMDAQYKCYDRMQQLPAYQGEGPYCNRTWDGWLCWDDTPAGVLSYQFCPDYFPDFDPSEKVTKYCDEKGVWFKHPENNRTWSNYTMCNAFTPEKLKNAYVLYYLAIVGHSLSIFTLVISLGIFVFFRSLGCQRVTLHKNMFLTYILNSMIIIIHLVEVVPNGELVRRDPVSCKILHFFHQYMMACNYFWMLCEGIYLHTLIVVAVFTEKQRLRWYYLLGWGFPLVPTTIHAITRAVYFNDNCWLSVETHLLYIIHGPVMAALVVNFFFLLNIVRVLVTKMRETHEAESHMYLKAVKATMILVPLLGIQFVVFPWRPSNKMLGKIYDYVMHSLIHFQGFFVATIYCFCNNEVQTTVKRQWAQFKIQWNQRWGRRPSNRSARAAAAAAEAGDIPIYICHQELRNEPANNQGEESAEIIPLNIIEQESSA
T1 sequence (O60896 24-148 partner): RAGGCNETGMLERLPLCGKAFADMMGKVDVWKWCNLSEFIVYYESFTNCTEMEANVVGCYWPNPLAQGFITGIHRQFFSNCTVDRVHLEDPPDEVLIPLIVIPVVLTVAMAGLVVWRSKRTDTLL

human amylin receptor = molecular target: T2, human amylin receptor (Homo sapiens, UniProt O60896+P30988); assay: Assay (V) binding to the human amylin receptor (SPA, 125I-rat amylin)
T2 construct: expressed in transfected cells
T2 sequence (P30988 25-474): T1 sequence (P30988 25-474)
T2 sequence (O60896 24-148 partner): T1 sequence (O60896 24-148 partner)
Method: The binding assay was performed using scintillation proximity assay (SPA) beads (RPNQ0001) from PerkinElmer and cell membranes from the Amylin 3(a)/CRE-luc cells (as described in Assay (II)) were used. Membranes were prepared in the following way; the cells were rinsed with PBS and incubated with Versene for approximately 5 min before harvesting. The cells were flushed with PBS and the cell-suspension was centrifuged for 5 min at 1000 rpm. […] The resulting pellet was resuspended in buffer 2 and protein concentration was measured (BCA protein Assay, Pierce). The homogenate was kept cold during the whole procedure. The membranes were kept at −80° C. until use. The assay was performed in a 384 well Optiplate (PerkinElmer) in a total volume of 40 ul. Membranes were mixed with SPA beads. Final concentration of membranes 35 ng/μL final and SPA beads was 0.05 mg/well. Test-compounds were dissolved in DMSO and further diluted in assay buffer (50 mM Hepes, pH 7.4, 1 mM CaCl2, 5 mM MgCl2, 0.1% OA and 0.02% Tween20). […] Samples were analyzed on TopCounter™ (Packard). The IC50 was calculated using (one site binding competition analysis) GraphPad Prism5 as a measure of receptor affinity.

[2] = Table 6, human functional selectivity (hCTR EC50 / hAmylin-R EC50)
[3] = Table 6a, human functional selectivity (hCTR EC50 / hAmylin-R EC50), at least 5
[4] = human binding ratio, included for comparison

Which “Ratio hCT/hAmylin funct.” value [1, 2] does the source give for `CC[C@H](C)[C@H](NC(=O)[C@H](C)NC(=O)CNC(=O)[C@H](Cc1ccccc1)NC(=O)[C@H](CC(N)=O)NC(=O)[C@@H]1CCCN1C(=O)[C@H](CO)NC(=O)[C@H](CO)NC(=O)[C@H](Cc1c[nH]cn1)NC(=O)[C@H](CCCNC(=N)N)NC(=O)[C@H](CC(C)C)NC(=O)[C@H](Cc1ccccc1)NC(=O)[C@H](CCC(=O)O)NC(=O)[C@H](C)NC(=O)[C@H](CC(C)C)NC(=O)[C@H](CCCNC(=N)N)NC(=O)[C@H](CCC(N)=O)NC(=O)[C@@H](NC(=O)[C@H](C)NC(=O)[C@@H]1CSSC[C@H](NC(=O)[C@H](CCCCN)NC(=O)CC[C@H](NC(=O)CC[C@H](NC(=O)CCCCCCCCCCCCCCCCCCC(=O)O)C(=O)O)C(=O)O)C(=O)N[C@@H](CC(N)=O)C(=O)N[C@@H]([C@@H](C)O)C(=O)N[C@@H](C)C(=O)N[C@@H]([C@@H](C)O)C(=O)N1)[C@@H](C)O)C(=O)N1CCC[C@H]1C(=O)N[C@@H](CO)C(=O)N[C@@H](CO)C(=O)N[C@H](C(=O)N[C@@H](CC(N)=O)C(=O)N[C@H](C(=O)NCC(=O)N[C@@H](CO)C(=O)N[C@@H](CC(N)=O)C(=O)N[C@H](C(=O)N[C@@H](Cc1ccc(O)cc1)C(N)=O)[C@@H](C)O)C(C)C)[C@@H](C)O` [Example 15] ({C20 diacid-γGlu-γGlu}-KCNTATCATQRLAEFLRHSSPNFGAIPSSTNVGSNTY-NH2; disulfide 2-7) here?
Its value is 8.9.

What about the “Ratio hCT/hAmylin funct.” value [1, 3] of the same molecule?
Its value is 8.9.

What about the “Ratio hCT/hAmylin funct.” value ([1]; Table 6i, hCTR funct. EC50 / hAmylin-R funct. EC50) of the same molecule?
The value was 8.9.

And the “Ratio hCT/hAmylin funct.” value ([1]; Table 6j, hCTR funct. EC50 / hAmylin-R funct. EC50)?
The value was 8.9.

What about the “Ratio hCT/hAmylin funct.” value ([1]; Table 6k, hCTR funct. EC50 / hAmylin-R funct. EC50) of the same molecule?
Its value is 8.9.

What about the “Ratio hCT/hAmylin binding” value (human amylin receptor; Table 7b, human calcitonin receptor binding IC50 divided by human amylin receptor binding IC50) of the same molecule?
Its value is 26.0.

What about the “Ratio hCT/hAmylin binding” value (human amylin receptor; Table 7c, human calcitonin receptor binding IC50 divided by human amylin receptor binding IC50) of the same molecule?
Its value is 26.0.

And the “Ratio hCT/hAmylin binding” value (human amylin receptor; [4])?
Its value is 26.0.

What does the source list for `CC[C@H](C)[C@H](NC(=O)[C@H](C)NC(=O)CNC(=O)[C@H](Cc1ccccc1)NC(=O)[C@H](CC(N)=O)NC(=O)[C@@H]1CCCN1C(=O)[C@H](CO)NC(=O)[C@H](CO)NC(=O)[C@H](Cc1c[nH]cn1)NC(=O)[C@H](CCCNC(=N)N)NC(=O)[C@H](CC(C)C)NC(=O)[C@H](Cc1ccccc1)NC(=O)[C@H](CCC(=O)O)NC(=O)[C@H](C)NC(=O)[C@H](CC(C)C)NC(=O)[C@H](CCCNC(=N)N)NC(=O)[C@H](CCC(N)=O)NC(=O)[C@@H](NC(=O)[C@H](C)NC(=O)[C@@H]1CSSC[C@H](NC(=O)[C@H](CCCCN)NC(=O)CC[C@H](NC(=O)CCCCCCCCCCCCCCCCCCC(=O)O)C(=O)O)C(=O)N[C@@H](CC(N)=O)C(=O)N[C@@H]([C@@H](C)O)C(=O)N[C@@H](C)C(=O)N[C@@H]([C@@H](C)O)C(=O)N1)[C@@H](C)O)C(=O)N1CCC[C@H]1C(=O)N[C@@H](CO)C(=O)N[C@@H](CO)C(=O)N[C@H](C(=O)N[C@@H](CC(N)=O)C(=O)N[C@H](C(=O)NCC(=O)N[C@@H](CO)C(=O)N[C@@H](Cc1c[nH]cn1)C(=O)N[C@H](C(=O)N[C@@H](Cc1ccc(O)cc1)C(N)=O)[C@@H](C)O)C(C)C)[C@@H](C)O` [Example 18] ({C20 diacid-γGlu}-KCNTATCATQRLAEFLRHSSPNFGAIPSSTNVGSHTY-NH2; disulfide 2-7)?
Ratio hCT/hAmylin funct. [1, 2]: 4.8; Ratio hCT/hAmylin binding (human amylin receptor; [4]): 9.2

Which “Ratio hCT/hAmylin funct.” value [1, 2] does the source give for `CC[C@H](C)[C@H](NC(=O)[C@H](C)NC(=O)CNC(=O)[C@H](Cc1ccccc1)NC(=O)[C@H](CC(N)=O)NC(=O)[C@@H]1CCCN1C(=O)[C@H](CO)NC(=O)[C@H](CO)NC(=O)[C@H](Cc1c[nH]cn1)NC(=O)[C@H](CCCNC(=N)N)NC(=O)[C@H](CC(C)C)NC(=O)[C@H](Cc1ccccc1)NC(=O)[C@H](CCC(=O)O)NC(=O)[C@H](C)NC(=O)[C@H](CC(C)C)NC(=O)[C@H](CCCNC(=N)N)NC(=O)[C@H](CCC(N)=O)NC(=O)[C@@H](NC(=O)[C@H](C)NC(=O)[C@@H]1CSSC[C@H](NC(=O)[C@H](CCCCN)NC(=O)CC[C@H](NC(=O)CCCCCCCCCCCCCCCCCCC(=O)O)C(=O)O)C(=O)N[C@@H](CC(N)=O)C(=O)N[C@@H]([C@@H](C)O)C(=O)N[C@@H](C)C(=O)N[C@@H]([C@@H](C)O)C(=O)N1)[C@@H](C)O)C(=O)N[C@@H](CC(C)C)C(=O)N1CCC[C@H]1C(=O)N[C@@H](CO)C(=O)N[C@H](C(=O)N[C@@H](CC(N)=O)C(=O)N[C@H](C(=O)NCC(=O)N[C@@H](CO)C(=O)N[C@@H](CCC(=O)O)C(=O)N[C@H](C(=O)N[C@@H](Cc1ccc(O)cc1)C(N)=O)[C@@H](C)O)C(C)C)[C@@H](C)O` [Example 33] ({C20 diacid-γGlu}-KCNTATCATQRLAEFLRHSSPNFGAILPSTNVGSETY-NH2; disulfide 2-7) here?
Its value is 2.2.

What about the “Ratio hCT/hAmylin funct.” value ([1]; hCTR funct. EC50 divided by hAmylin-R funct. EC50) of the same molecule?
The value was 2.2.

What about the “Ratio hCT/hAmylin binding” value (human amylin receptor; [4]) of the same molecule?
The value was 3.9.

For `CC[C@H](C)[C@H](NC(=O)[C@H](C)NC(=O)CNC(=O)[C@H](Cc1ccccc1)NC(=O)[C@H](CC(N)=O)NC(=O)[C@@H]1CCCN1C(=O)[C@H](CO)NC(=O)[C@H](CO)NC(=O)[C@H](Cc1c[nH]cn1)NC(=O)[C@H](CCCNC(=N)N)NC(=O)[C@H](CC(C)C)NC(=O)[C@H](Cc1ccccc1)NC(=O)[C@H](CCC(=O)O)NC(=O)[C@H](C)NC(=O)[C@H](CC(C)C)NC(=O)[C@H](CCCNC(=N)N)NC(=O)[C@H](CCC(N)=O)NC(=O)[C@@H](NC(=O)[C@H](C)NC(=O)[C@@H]1CSSC[C@H](NC(=O)[C@H](CCCCN)NC(=O)CC[C@H](NC(=O)CCCCCCCCCCCCCCCCCCC(=O)O)C(=O)O)C(=O)N[C@@H](CC(N)=O)C(=O)N[C@@H]([C@@H](C)O)C(=O)N[C@@H](C)C(=O)N[C@@H]([C@@H](C)O)C(=O)N1)[C@@H](C)O)C(=O)N1CCC[C@H]1C(=O)N[C@@H](CO)C(=O)N1CCC[C@H]1C(=O)N[C@H](C(=O)N[C@@H](CC(N)=O)C(=O)N[C@H](C(=O)NCC(=O)N[C@@H](CO)C(=O)N[C@@H](CC(N)=O)C(=O)N[C@H](C(=O)N[C@@H](Cc1ccc(O)cc1)C(N)=O)[C@@H](C)O)C(C)C)[C@@H](C)O` [Example 37] ({C20 diacid-γGlu}-KCNTATCATQRLAEFLRHSSPNFGAIPSPTNVGSNTY-NH2; disulfide 2-7), which “Ratio hCT/hAmylin funct.” value [1, 2] is on record?
Its value is 4.0.

And the “Ratio hCT/hAmylin binding” value (human amylin receptor; [4])?
The value was 2.3.

What does the source list for `CC[C@H](C)[C@H](NC(=O)[C@H](C)NC(=O)CNC(=O)[C@H](Cc1ccccc1)NC(=O)[C@H](CC(N)=O)NC(=O)[C@H](CCCCNC(=O)CC[C@H](NC(=O)CC[C@H](NC(=O)CCCCCCCCCCCCCCCCCCC(=O)O)C(=O)O)C(=O)O)NC(=O)[C@H](CO)NC(=O)[C@H](CO)NC(=O)[C@H](Cc1c[nH]cn1)NC(=O)[C@H](CCCNC(=N)N)NC(=O)[C@H](CC(C)C)NC(=O)[C@H](Cc1ccccc1)NC(=O)[C@H](CC(=O)O)NC(=O)[C@H](C)NC(=O)[C@H](CC(C)C)NC(=O)[C@H](CCCNC(=N)N)NC(=O)[C@H](CCC(N)=O)NC(=O)[C@@H](NC(=O)[C@H](C)NC(=O)[C@@H]1CSSC[C@H](NC(=O)[C@@H](N)CCCCN)C(=O)N[C@@H](CC(N)=O)C(=O)N[C@@H]([C@@H](C)O)C(=O)N[C@@H](C)C(=O)N[C@@H]([C@@H](C)O)C(=O)N1)[C@@H](C)O)C(=O)N1CCC[C@H]1C(=O)N[C@@H](CO)C(=O)N[C@@H](CO)C(=O)N[C@H](C(=O)N[C@@H](CC(N)=O)C(=O)N[C@H](C(=O)NCC(=O)N[C@@H](CO)C(=O)N[C@@H](CC(=O)O)C(=O)N[C@H](C(=O)N[C@@H](Cc1ccc(O)cc1)C(N)=O)[C@@H](C)O)C(C)C)[C@@H](C)O` [Example 59] (H-KCNTATCATQRLADFLRHSSK([γGlu-γGlu-C20 diacid])NFGAIPSSTNVGSDTY-NH2; disulfide 2-7; N-terminus assumed)?
Ratio hCT/hAmylin funct. [1, 2]: 5.0; Ratio hCT/hAmylin funct. [1, 3]: 5.0; Ratio hCT/hAmylin binding (human amylin receptor; [4]): 4.3
